Where two headings read alike, the source gives them in different places.
How the values were obtained:
Format in all cases: in vivo, mice
CaLu-6 tumors = test system: CaLu-6 tumors
Source text: (§1) Female athymic nude mice (Harlan Sprague Dawley, Madison, Wis.) were utilized for all experiments. Animals were housed in ventilated rack caging with food and water ad libitum. The mice were acclimated for at least 5 days prior to tumor implantation.
The tumor model used in this study was CaLu-6 cell line which is a human lung cell line obtained from the ATCC (Manassas, Va.). […] Cells from in vitro passage 10 were those implanted SC into study mice.
(§2) Treatments were initiated on DPI 9.
(§3) Tumor size measurements were recorded 2-3 times/week from the treatment initiation until the termination of the study.
(§4) Mean, standard deviation and standard error of the mean were determined for tumor volume for all animal groups at all assessments. Student's t test was performed on tumor volumes at each measurement day, including at the end of the study, to determine whether there were any statistically significant differences between combination treatment groups and single monotherapy treatment groups.

NCI-H460 tumors [1] = test system: NCI-H460 tumors
Source text: as §1
The tumor model used in this study was NCI-H460 cell line which is a human lung cell line obtained from the ATCC (Manassas, Va.). […] Cells from in vitro passage 16 were those implanted SC into study mice.
Treatments were initiated on DPI 8.
as §3, §4

H-Meso-1 tumors = conditions: G4 pemetrexed 100 mg/kg/day IP
Description: as §1
(§5) The tumor model used in this study was H-Meso-1 cell line which is a human mesothelioma cell line obtained from the DTP, DCTD tumor repository. […] Cells were implanted SC into study mice using a 1 ml syringe with a 13G trocar: 5×10^6 cells/mouse in 0.2 ml 50% Matrigel/50% RPMI medium of H-Meso-1 without serum or antibiotics. Bacterial culture was taken on cells used to implant the study.
Treatments were initiated on DPI 6.
as §3, §4

SK-OV-3 tumors = test system: SK-OV-3 tumors
Source text: Female athymic nude mice (Harlan Sprague Dawley, Madison, Wis.) were utilized for all experiments. Animals were housed in ventilated rack caging with food and water ad libitum. The mice were acclimated for at least 5 days prior to tumor implantation with tumor fragments.
The tumor model used in these studies was SK-OV-3 cell line, which was obtained from the ATCC (Manassas, Va.).
SK-OV-3 fragments were removed from donor animals and tissue was debrided of membrane and any hemorrhagic and necrotic areas and 3-4 mm^3 fragments, from in vivo passage 2, were implanted SC on the right flank of each animal, using a 13G trochar. Bacterial culture was taken on cells used to implant the study.
Treatments were initiated on DPI 14.
Tumor size measurements were recorded twice weekly from the treatment initiation until the termination of the study.
as §4

NCI-H460 tumors [2] = test system: NCI-H460 tumors; remark: listed apart in the source
Description: as §1
as §5, with “NCI-H460” for “H-Meso-1”, “NSCLC” for “mesothelioma”, “ATCC (Manassas, Va.).” for “DTP, DCTD tumor repository.”, “Cells from in vitro passage 7” for “Cells”
as §2, §3, §4

[3] = day 13, G3 pemetrexed 125 mg/kg/day IP
[4] = day 13, G4 pemetrexed 100 mg/kg/day IP
[5] = day 16, G3 pemetrexed 125 mg/kg/day IP
[6] = day 16, G4 pemetrexed 100 mg/kg/day IP
[7] = day 20, G3 pemetrexed 125 mg/kg/day IP
[8] = day 20, G4 pemetrexed 100 mg/kg/day IP
[9] = day 23, G3 pemetrexed 125 mg/kg/day IP
[10] = day 23, G4 pemetrexed 100 mg/kg/day IP
[11] = Bevacizumab […] IP, alone or with PM00104 0.90 mg/kg/day IV
[12] = PM00104 0.90 mg/kg/day IV and/or Bevacizumab 5 mg/kg/day IP
[13] = Bevacizumab […] IP, alone or with PM00104 0.9 mg/kg/day IV
[14] = PM00104 0.9 mg/kg/day IV and/or Bevacizumab 5 mg/kg/day IP

## Nc1nc2[nH]cc(CCc3ccc(C(=O)N[C@@H](CCC(=O)O)C(=O)O)cc3)c2c(=O)[nH]1 [pemetrexed]
CaLu-6 tumors; G3 pemetrexed 125 mg/kg/day IP
  % T/C on day 9: 99.6%
  % T/C on day 16: 86.6%
  % T/C on day 20: 104.8%
  % T/C on day 23: 98.7%
  % T/C on day 27: 87.9%
  % T/C on day 30: 90.0%
  % T/C on day 34: 89.1%
  % T/C on day 42: 94.2%
CaLu-6 tumors; G4 pemetrexed 100 mg/kg/day IP
  % T/C on day 9: 103.4%
  % T/C on day 13: 126.5%
  % T/C on day 16: 103.5%
  % T/C on day 20: 120.6%
  % T/C on day 23: 111.5%
  % T/C on day 27: 101.8%
  % T/C on day 30: 105.8%
  % T/C on day 34: 102.2%
  % T/C on day 42: 100.5%
CaLu-6 tumors; day 9, G3 pemetrexed 125 mg/kg/day IP
  % Inhibition: 0.4%
CaLu-6 tumors; day 9, G4 pemetrexed 100 mg/kg/day IP
  % Inhibition: −3.4%
CaLu-6 tumors; [3]
  % Inhibition: −16.6%
CaLu-6 tumors; [4]
  % Inhibition: −26.5%
CaLu-6 tumors; [5]
  % Inhibition: 13.4%
CaLu-6 tumors; [6]
  % Inhibition: −3.5%
CaLu-6 tumors; [7]
  % Inhibition: −4.8%
CaLu-6 tumors; [8]
  % Inhibition: −20.6%
CaLu-6 tumors; [9]
  % Inhibition: 1.3%
CaLu-6 tumors; [10]
  % Inhibition: −11.5%
CaLu-6 tumors; day 27, G3 pemetrexed 125 mg/kg/day IP
  % Inhibition: 12.1%
CaLu-6 tumors; day 27, G4 pemetrexed 100 mg/kg/day IP
  % Inhibition: −1.8%
CaLu-6 tumors; day 30, G3 pemetrexed 125 mg/kg/day IP
  % Inhibition: 10.0%
CaLu-6 tumors; day 30, G4 pemetrexed 100 mg/kg/day IP
  % Inhibition: −5.8%
CaLu-6 tumors; day 34, G3 pemetrexed 125 mg/kg/day IP
  % Inhibition: 10.9%
CaLu-6 tumors; day 34, G4 pemetrexed 100 mg/kg/day IP
  % Inhibition: −2.2%
CaLu-6 tumors; day 42, G3 pemetrexed 125 mg/kg/day IP
  % Inhibition: 5.8%
CaLu-6 tumors; day 42, G4 pemetrexed 100 mg/kg/day IP
  % Inhibition: −0.5%
NCI-H460 tumors [1]; G3 pemetrexed 125 mg/kg/day IP
  % T/C on day 8: 102.6%
  % T/C on day 10: 119.0%
  % T/C on day 13: 67.5%
  % T/C on day 16: 71.0%
  % T/C on day 20: 70.4%
  % T/C on day 23: 85.4%
  % T/C on day 28: 72.9%
  % T/C on day 31: 82.6%
NCI-H460 tumors [1]; G4 pemetrexed 100 mg/kg/day IP
  % T/C on day 8: 103.0%
  % T/C on day 10: 107.3%
  % T/C on day 13: 75.7%
  % T/C on day 16: 72.4%
  % T/C on day 20: 72.9%
  % T/C on day 23: 86.3%
  % T/C on day 28: 76.8%
  % T/C on day 31: 96.9%
NCI-H460 tumors [1]; day 8, G3 pemetrexed 125 mg/kg/day IP
  % Inhibition: −2.6%
NCI-H460 tumors [1]; day 8, G4 pemetrexed 100 mg/kg/day IP
  % Inhibition: −3.0%
NCI-H460 tumors [1]; day 10, G3 pemetrexed 125 mg/kg/day IP
  % Inhibition: −19.0%
NCI-H460 tumors [1]; day 10, G4 pemetrexed 100 mg/kg/day IP
  % Inhibition: −7.3%
NCI-H460 tumors [1]; [3]
  % Inhibition: 32.5%
NCI-H460 tumors [1]; [4]
  % Inhibition: 24.3%
NCI-H460 tumors [1]; [5]
  % Inhibition: 29.0%
NCI-H460 tumors [1]; [6]
  % Inhibition: 27.6%
NCI-H460 tumors [1]; [7]
  % Inhibition: 29.6%
NCI-H460 tumors [1]; [8]
  % Inhibition: 27.1%
NCI-H460 tumors [1]; [9]
  % Inhibition: 14.6%
NCI-H460 tumors [1]; [10]
  % Inhibition: 13.7%
NCI-H460 tumors [1]; day 28, G3 pemetrexed 125 mg/kg/day IP
  % Inhibition: 27.1%
NCI-H460 tumors [1]; day 28, G4 pemetrexed 100 mg/kg/day IP
  % Inhibition: 23.2%
NCI-H460 tumors [1]; day 31, G3 pemetrexed 125 mg/kg/day IP
  % Inhibition: 17.4%
NCI-H460 tumors [1]; day 31, G4 pemetrexed 100 mg/kg/day IP
  % Inhibition: 3.1%
H-Meso-1 tumors
  % T/C on day 6: 102.1%
  % T/C on day 7: 100.2%
  % T/C on day 9: 109.0%
  % T/C on day 12: 105.7%
  % T/C on day 14: 124.2%
  % T/C on day 16: 128.6%
  % T/C on day 19: 110.4%
  % T/C on day 22: 100.8%
  % T/C on day 26: 122.9%
H-Meso-1 tumors; day 6
  % Inhibition: −2.1%
H-Meso-1 tumors; day 7
  % Inhibition: −0.2%
H-Meso-1 tumors; day 9
  % Inhibition: −9.0%
H-Meso-1 tumors; day 12
  % Inhibition: −5.7%
H-Meso-1 tumors; day 14
  % Inhibition: −24.2%
H-Meso-1 tumors; day 16
  % Inhibition: −28.6%
H-Meso-1 tumors; day 19
  % Inhibition: −10.4%
H-Meso-1 tumors; day 22
  % Inhibition: −0.8%
H-Meso-1 tumors; day 26
  % Inhibition: −22.9%
H-Meso-1 tumors; day 29
  % Inhibition: −22.4%

## bevacizumab
SK-OV-3 tumors; [11]
  % T/C on day 14: 100.5%
  % T/C on day 17: 85.0%
  % T/C on day 21: 61.0%
  % T/C on day 24: 48.4%
  % T/C on day 29: 32.1%
  % T/C on day 32: 29.6%
  % T/C on day 36: 40.3%
  % T/C on day 43: 48.7%
  % T/C on day 50: 47.5%
  % T/C on day 57: 70.0%
SK-OV-3 tumors; [12]
  % T/C on day 14: 100.2%
  % T/C on day 17: 76.6%
  % T/C on day 21: 64.0%
  % T/C on day 24: 42.6%
  % T/C on day 29: 28.0%
  % T/C on day 32: 25.8%
  % T/C on day 36: 30.7%
  % T/C on day 43: 43.8%
  % T/C on day 50: 42.5%
  % T/C on day 57: 46.1%
NCI-H460 tumors [2]; [13]
  % T/C on day 9: 99.4%
  % T/C on day 13: 81.7%
  % T/C on day 16: 74.3%
  % T/C on day 21: 59.7%
  % T/C on day 24: 52.0%
  % T/C on day 27: 26.9%
  % T/C on day 30: 43.3%
  % T/C on day 38: 96.8%
  % T/C on day 41: 104.7%
NCI-H460 tumors [2]; [14]
  % T/C on day 9: 102.1%
  % T/C on day 13: 91.3%
  % T/C on day 16: 87.6%
  % T/C on day 21: 74.2%
  % T/C on day 24: 68.3%
  % T/C on day 27: 38.7%
  % T/C on day 30: 43.7%
